# ± gives the expanded uncertainty stated by the source.
# Conditions: Liquid, Vibrating wire viscometry
smiles,measurement,setting,value
C1CCCC1 [cyclopentane],viscosity,"273.15 K, 100 kPa",0.5628 ± 0.013 mPa·s
same,viscosity,"273.15 K, 10000 kPa",0.6148 ± 0.014 mPa·s
same,viscosity,"273.15 K, 30000 kPa",0.7203 ± 0.016 mPa·s
same,viscosity,"273.15 K, 40000 kPa",0.7767 ± 0.017 mPa·s
same,viscosity,"293.15 K, 100 kPa",0.4413 ± 0.01 mPa·s
same,viscosity,"293.15 K, 10000 kPa",0.4827 ± 0.011 mPa·s
same,viscosity,"293.15 K, 30000 kPa",0.5708 ± 0.013 mPa·s
same,viscosity,"293.15 K, 40000 kPa",0.6167 ± 0.014 mPa·s
same,viscosity,"298.15 K, 100 kPa",0.4167 ± 0.0097 mPa·s
same,viscosity,"298.15 K, 10000 kPa",0.4583 ± 0.01 mPa·s
same,viscosity,"298.15 K, 30000 kPa",0.5409 ± 0.012 mPa·s
same,viscosity,"298.15 K, 40000 kPa",0.5846 ± 0.013 mPa·s
same,viscosity,"313.15 K, 10000 kPa",0.392 ± 0.009 mPa·s
same,viscosity,"313.15 K, 30000 kPa",0.4646 ± 0.011 mPa·s
same,viscosity,"313.15 K, 45000 kPa",0.5222 ± 0.012 mPa·s
same,viscosity,"333.15 K, 10000 kPa",0.3247 ± 0.008 mPa·s
same,viscosity,"333.15 K, 30000 kPa",0.3882 ± 0.0092 mPa·s
same,viscosity,"333.15 K, 45000 kPa",0.4364 ± 0.01 mPa·s
same,viscosity,"353.15 K, 15000 kPa",0.2868 ± 0.0073 mPa·s
same,viscosity,"353.15 K, 30000 kPa",0.3291 ± 0.0081 mPa·s
same,viscosity,"353.15 K, 45000 kPa",0.3727 ± 0.0089 mPa·s
